Tests used:
[1] = system: Mycosphaerella graminicola; anamorph: Septoria tritici (SEPTTR); assay: Evaluation of fungicidal activity: leaf blotch of wheat (SEPTTR); assay type: in vivo, Septoria tritici on wheat plants (variety Yuma); details: wheat plants, percent control vs untreated inoculated plants
Method: Evaluation of Fungicidal Activity: Leaf Blotch of Wheat (Mycosphaerella graminicola; anamorph: Septoria tritici; Bayer code […]) Wheat plants (variety Yuma) were grown from seed in a greenhouse in 50% mineral soil/50% soil-less Metro mix until the first leaf was fully emerged, with 7-10 seedlings per pot. These plants were inoculated with an aqueous spore suspension of Septoria tritici either prior to or after fungicide treatments. After inoculation the plants were kept in 100% relative humidity (one day in a dark dew chamber followed by two to three days in a lighted dew chamber) to permit spores to germinate and infect the leaf. The plants were then transferred to a greenhouse for disease to develop. The following table presents the activity of typical compounds of the present disclosure when evaluated in these experiments. The effectiveness of the test compounds in controlling disease was determined by assessing the severity of disease on treated plants, then converting the severity to percent control based on the level of disease on untreated, inoculated plants.

[2] = system: Venturia inaequalis (VENTIN); assay: Evaluation of fungicidal activity: apple scab (VENTIN); assay type: in vivo; details: apple seedlings, percent control vs untreated inoculated plants
Method: Evaluation of Fungicidal Activity: Apple Scab (Venturia inaequalis; Bayer code […]) Apple seedlings (McIntosh or Golden Delicious) were grown in Metro mix and inoculated with a spore suspension containing 5×10^5 spore/ml. Plants were placed in a dew room for 24 hours with 100% relative humidity and then transferred to a greenhouse with a temperature of 18° C. for disease to develop. The following table presents the activity of typical compounds of the present disclosure when evaluated in these experiments. The effectiveness of the test compounds in controlling disease was determined by assessing the severity of disease on treated plants, then converting the severity to percent control based on the level of disease on untreated, inoculated plants.

Compound	SEPTTR 100 PPM 1DP (One-Day Protectant activity, % disease control rating) [1]	SEPTTR 100 PPM 3DC (Three-Day Curative activity, % disease control rating) [1]	VENTIN 100 PPM 1DP (One-Day Protectant activity, % disease control rating) [2]
Cn1c(=O)[nH]cc(F)c1=N [Cmpd 1, 5-fluoro-4-imino-3-methyl-3,4-dihydropyrimidin-2(1H)-one]	A (76-100)	A (76-100)	B (51-75)
N=c1c(F)c[nH]c(=O)n1Cc1cccs1 [Cmpd 2, 5-fluoro-4-imino-3-(thiophen-2-ylmethyl)-3,4-dihydropyrimidin-2(1H)-one]	B (51-75)	A (76-100)	
[2H]C([2H])([2H])n1c(=O)[nH]cc(F)c1=N [Cmpd 3, 5-fluoro-4-imino-3-(trideuteriomethyl)-1H-pyrimidin-2-one]	D (0-25)	D (0-25)	

Source: patent US8658660B2, “5-fluoro-4-imino-3,4-dihydropyrimidin-2-(1H)-ones derivatives” (Dow AgroSciences, LLC., priority 2011, dated 2014)
